Test results taken from patent EP0868915A1, “An anti-spasmodic and antiinflammatory composition containing a NSAID, pentifenone and fenpiverinium” (PANACEA BIOTEC LIMITED, priority 1997, dated 1998).
Where a name gives a salt, the structure may show the parent alone. Read-outs that look alike come from different tables or passages of the source.

System: distal portion of colon of rat
Assay: Inhibition of acetylcholine-induced contraction of isolated rat colon (antispasmodic activity)
Details: for Percentage inhibition of Ach (100 ng/ml) -Induced contraction After Diclofenac Na: in presence of Diclofenac Sodium 20µ/ml; for inhibition at 0.01 µg/mL: Pitofenone Hcl dose 10 ng/ml; for inhibition at 0.02 µg/mL: Pitofenone Hcl dose 20 ng/ml; for inhibition at 0.04 µg/mL: Pitofenone Hcl dose 40 ng/ml; for inhibition at 0.08 µg/mL: Pitofenone Hcl dose 80 ng/ml
Method: In order to see the effect of NSAID on the Antispasmodic activity of Pitifenone hydrochloride and Fenpiverinium bromide an experiment was conducted on standard isolated tissues of experimental animal. The tissue chosen for the experiment was the distal portion of colon of rat. The NSAID selected for the experiment was Diclofenac Sodium.
The percentage inhibition of Acetylcholine - induced contraction (at dosage level of 100ng/m) was studied with varied concentration of Pitofenone Hydrochloride in the dose range of 10-80 nano gm/ml.
The percentage inhibition of Acetylcholine -induced contraction (at dosage level of 100ng/ml) was studied with varied concentration of Fenpiverinium bromide in the dose range of 0.5-2 ng/ml.
The experiment was then conducted at the same dose level of Acetylcholine and Fenpiverinium bromide but in the presence of Diclofenac Sodium (dose level 20µ gm/ml). The data obtained in the experiment is collected in Table -2.

[1] = Fenpiverinium Bromide dose 0.5 (ng/ml)
[2] = Fenpiverinium Bromide dose 1.0 (ng/ml)
[3] = Fenpiverinium Bromide dose 2.0 (ng/ml)
[4] = in presence of Diclofenac Sodium 20 µg/ml, read-out: Percentage inhibition of Ach (100 ng/ml) -induced contraction After Diclofenac Na
[5] = read-out: Percentage inhibition of Ach (100 ng/ml) -induced contraction Before Diclofenac Na

In the case of O=C(O)Cc1ccccc1Nc1c(Cl)cccc1Cl [Diclofenac, Diclofenac Sodium], the “action with Fenpiverinium bromide as an Antispasmodic” value (Diclofenac Sodium 20 µg/ml) is reported as “synergistic (potentiating) action” and the “action with Pitofenone Hydrochloride as an Antispasmodic” value (Diclofenac Sodium 20 µg/ml) is reported as “synergistic (potentiating) action”.

C[N+]1(CCC(C(N)=O)(c2ccccc2)c2ccccc2)CCCCC1 [Fenpiverinium Bromide, Fenpiverinium bromide] was tested, and the “Percentage inhibition of Ach (100 ng/ml) -Induced contraction Before Diclofenac Na” value [1] was 43.8%, the “Percentage inhibition of Ach (100 ng/ml) -Induced contraction After Diclofenac Na” value [1] was 100% and the “Percentage inhibition of Ach (100 ng/ml) -Induced contraction Before Diclofenac Na” value [2] was 78.7%. For the same molecule, the “Percentage inhibition of Ach (100 ng/ml) -Induced contraction After Diclofenac Na” value [2] was 100%, the “Percentage inhibition of Ach (100 ng/ml) -Induced contraction Before Diclofenac Na” value [3] was 100% and the “Percentage inhibition of Ach (100 ng/ml) -Induced contraction After Diclofenac Na” value [3] was 100%.

COC(=O)c1ccccc1C(=O)c1ccc(OCCN2CCCCC2)cc1 [Pitofenone Hcl, Pitofenone Hydrochloride] was tested, and the inhibition at 0.01 µg/mL [4] was 100%, the inhibition at 0.01 µg/mL [5] was 0% and the inhibition at 0.02 µg/mL [4] was 100%. For the same molecule, the inhibition at 0.02 µg/mL [5] was 0%, the inhibition at 0.04 µg/mL [4] was 100% and the inhibition at 0.04 µg/mL [5] was 0%. The inhibition at 0.08 µg/mL [4] was 100% and the inhibition at 0.08 µg/mL [5] was 20.2%.
